Calls of active or inactive are those of the source. The rule behind the calls is not given here.
How the values were obtained:
RAW264.7 [1] = test: Cytotoxicity against mouse RAW264.7 cells assessed as cell viability at 10 to 20 uM after 24 hrs by MTT assay; format: cell-based; conditions: raw264.7, 24 h
RAW264.7 [2] = test: Antiinflammatory activity in mouse RAW264.7 cells assessed as inhibition of LPS-induced NOS2 expression at 20 uM treated 30 mins before LPS stimulation measured after 24 hrs by Western blotting; format: functional, cell-based
RAW264.7 [3] = test: Antiinflammatory activity in mouse RAW264.7 cells assessed as inhibition of LPS-induced COX2 expression at 20 uM treated 30 mins before LPS stimulation measured after 24 hrs by Western blotting; format: functional, cell-based
RAW264.7 [4] = test: Antiinflammatory activity in mouse RAW264.7 cells assessed as inhibition of LPS-induced NOS2 expression at 10 to 20 uM treated 30 mins before LPS stimulation measured after 24 hrs by Western blotting; format: functional, cell-based
RAW264.7 [5] = test: Inhibition of NFkappaB activation in mouse RAW264.7 cells assessed as reduction of LPS-induced IkappaBalpha level in cytosol at 20 uM treated 30 mins before LPS stimulation measured after 24 hrs by Western blotting; format: cell-based
RAW264.7 [6] = test: Antiinflammatory activity in mouse RAW264.7 cells assessed as inhibition of LPS-induced nitric oxide production treated 30 mins before LPS stimulation measured after 24 hrs by Griess assay; format: functional, cell-based
RAW264.7 [7] = test: Antiinflammatory activity in mouse RAW264.7 cells assessed as inhibition of LPS-induced COX2 expression at 10 to 20 uM treated 30 mins before LPS stimulation measured after 24 hrs by Western blotting; format: functional, cell-based
RAW264.7 [8] = test: Inhibition of NFkappaB activation in mouse RAW264.7 cells assessed as reduction of LPS-induced IkappaBbeta level in cytosol at 20 uM treated 30 mins before LPS stimulation measured after 24 hrs by Western blotting; format: cell-based
RAW264.7 [9] = test: Inhibition of NFkappaB activation in mouse RAW264.7 cells assessed as reduction of LPS-induced p65 level in nucleus at 20 uM treated 30 mins before LPS stimulation measured after 24 hrs by Western blotting; format: cell-based

## COc1cc(-n2c(-c3ccc([N+](=O)[O-])cc3)nc3cc(OC)c4ccccc4c32)c(OC)c2ccccc12
RAW264.7 [1]
  Activity: Non-toxic

## COc1cc(-n2c(-c3ccccc3)nc3cc(OC)c4ccccc4c32)c(OC)c2ccccc12
RAW264.7 [2]
  inhibition: inactive
RAW264.7 [3]
  inhibition: inactive
RAW264.7 [1]
  Activity: Non-toxic

## COc1cc(-n2c(-c3ccsc3)nc3cc(OC)c4ccccc4c32)c(OC)c2ccccc12
RAW264.7 [1]
  Activity: Non-toxic

## COc1cc2nc(-c3ccc([N+](=O)[O-])cc3)n(-c3ccccc3Br)c2c2ccccc12
RAW264.7 [1]
  Activity: Non-toxic

## COc1cc(-n2c(-c3cccnc3)nc3cc(OC)c4ccccc4c32)c(OC)c2ccccc12
RAW264.7 [4]
  inhibition: Active
RAW264.7 [5]
  inhibition: Active
RAW264.7 [6]
  IC50: 8.4 µM
  inhibition: Dose-dependent effect
RAW264.7 [7]
  inhibition: Active
RAW264.7 [8]
  inhibition: Active
RAW264.7 [9]
  inhibition: Active
RAW264.7 [1]
  Activity: Non-toxic

## COc1cc(-n2c(-c3cccc(F)c3)nc3cc(OC)c4ccccc4c32)c(OC)c2ccccc12
RAW264.7 [1]
  Activity: Non-toxic

Reference: ChEMBL document CHEMBL3616470, “Biological evaluation of angular disubstituted naphthoimidazoles as anti-inflammatory agents” (Bioorg Med Chem Lett, 2015)
